Experimental data as given in ChEMBL document CHEMBL1201862, “PubChem BioAssay data set” (2004).
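Exposure lasted 48 hours, with cells grown in 96-well plates and compounds tested at five concentrations. At the GI50, growth is halved.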 Active and inactive are the calls of the source. Cut-off read from the data, not from the text of the source: active = GI50 up to about 1.1 µM and inactive = higher.

Legend:
Assay in all cases: NCI-60 cell line screen, 48 h
[1] = test system: COLO 205
[2] = test system: SK-OV-3
[3] = test system: NCI-H226
[4] = test system: NCI/ADR-RES
[5] = test system: TK-10
[6] = test system: MDA-MB-231
[7] = test system: M14
[8] = test system: HCT-15
[9] = test system: PC-3
[10] = test system: OVCAR-3
[11] = test system: UO-31
[12] = test system: A549
[13] = test system: OVCAR-4
[14] = test system: UACC-62
[15] = test system: SR
[16] = test system: Hs-578T
[17] = test system: MDA-MB-435
[18] = test system: KM12
[19] = test system: SN12C
[20] = test system: HT-29
[21] = test system: 786-0
[22] = test system: UACC-257
[23] = test system: SF-539
[24] = test system: CAKI-1
[25] = test system: HCC 2998
[26] = test system: SK-MEL-28
[27] = test system: MOLT-4
[28] = test system: A498
[29] = test system: NCI-H460
[30] = test system: IGROV-1
[31] = test system: EKVX
[32] = test system: DU-145
[33] = test system: MCF7
[34] = test system: OVCAR-5
[35] = test system: RXF 393
[36] = test system: SW-620
[37] = test system: HOP-92
[38] = test system: RPMI-8226
[39] = test system: NCI-H23
[40] = test system: MDA-N
[41] = test system: HL-60
[42] = test system: K562
[43] = test system: LOX IMVI
[44] = test system: SNB-75
[45] = test system: SF-268
[46] = test system: Malme-3M
[47] = test system: BT-549
[48] = test system: HOP-62
[49] = test system: SK-MEL-2
[50] = test system: SNB-19
[51] = test system: SF-295
[52] = test system: T47D
[53] = test system: U-251
[54] = test system: ACHN
[55] = test system: SK-MEL-5
[56] = test system: HCT-116
[57] = test system: OVCAR-8
[58] = test system: NCI-H522
[59] = test system: CCRF-CEM

What does the source list for `COC(=O)C1=C(O)C(C(=O)OC)[C@]2(O)[C@H](C(=O)OC)[C@H]1C[C@@H](c1ccc(C(F)(F)F)cc1)[C@H]2C(=O)OC` (stereo not given in full)?
GI50 [1]: 3.18 µM (inactive); GI50 [2]: 6.35 µM (inactive); GI50 [3]: 1.33 µM (inactive); GI50 [4]: 2.33 µM (inactive); GI50 [5]: 4.73 µM (inactive); GI50 [6]: 4.22 µM (inactive); GI50 [7]: 3.81 µM (inactive); GI50 [8]: 2.82 µM; GI50 [9]: 3.48 µM (inactive); GI50 [10]: 3.78 µM (inactive); GI50 [11]: 2.84 µM (inactive); GI50 [12]: 3.74 µM (inactive); GI50 [13]: 5.55 µM (inactive); GI50 [14]: 3.87 µM (inactive); GI50 [15]: 2.56 µM (inactive); GI50 [16]: 4.43 µM (inactive); GI50 [17]: 3.36 µM (inactive); GI50 [18]: 5.37 µM (inactive); GI50 [19]: 4.47 µM (inactive); GI50 [20]: 4.68 µM (inactive); GI50 [21]: 3.44 µM (inactive); GI50 [22]: 4.6 µM (inactive); GI50 [23]: 1.59 µM (inactive); GI50 [24]: 3.34 µM (inactive); GI50 [25]: 3.47 µM (inactive); GI50 [26]: 4.89 µM (inactive); GI50 [27]: 2.07 µM (inactive); GI50 [28]: 3.37 µM (inactive); GI50 [29]: 3.34 µM (inactive); GI50 [30]: 5.15 µM (inactive); GI50 [31]: 10.6 µM (inactive); GI50 [32]: 4.24 µM (inactive); GI50 [33]: 3.5 µM (inactive); GI50 [34]: 3.63 µM (inactive); GI50 [35]: 2.17 µM (inactive); GI50 [36]: 2.76 µM (inactive); GI50 [37]: 5.27 µM (inactive); GI50 [38]: 2.51 µM (inactive); GI50 [39]: 3.58 µM (inactive); GI50 [40]: 3.27 µM (inactive); GI50 [41]: 5.48 µM (inactive); GI50 [42]: 2.62 µM (inactive); GI50 [43]: 2.45 µM (inactive); GI50 [44]: 4.13 µM (inactive); GI50 [45]: 4.47 µM (inactive); GI50 [46]: 3.78 µM (inactive); GI50 [47]: 3.25 µM (inactive); GI50 [48]: 6.87 µM (inactive); GI50 [49]: 2.79 µM (inactive); GI50 [50]: 3.87 µM (inactive); GI50 [51]: 4 µM (inactive); GI50 [52]: 3.44 µM (inactive); GI50 [53]: 2.41 µM (inactive); GI50 [54]: 3.46 µM (inactive); GI50 [55]: 2.49 µM (inactive); GI50 [56]: 2.54 µM (inactive); GI50 [57]: 2.85 µM (inactive)

Which results are given for `C=C(CO)C(=O)OC1CC(=C)C2CC(O)C(C)C2C2OC(=O)C(=C)C12` (stereo not given)?
GI50 [1]: 34.2 µM (inactive); GI50 [2]: 30.4 µM (inactive); GI50 [4]: 44.7 µM (inactive); GI50 [5]: 16.3 µM (inactive); GI50 [6]: 20 µM (inactive); GI50 [7]: 17.3 µM (inactive); GI50 [8]: 19.1 µM; GI50 [9]: 31.6 µM (inactive); GI50 [10]: 16 µM (inactive); GI50 [11]: 16.2 µM (inactive); GI50 [58]: 26.3 µM (inactive); GI50 [12]: 28.8 µM (inactive); GI50 [13]: 61.1 µM (inactive); GI50 [14]: 16.6 µM (inactive); GI50 [15]: 19.3 µM (inactive); GI50 [16]: 18.4 µM (inactive); GI50 [17]: 21.2 µM (inactive); GI50 [18]: 18 µM (inactive); GI50 [19]: 18.2 µM (inactive); GI50 [20]: 24.7 µM (inactive); GI50 [21]: 37.3 µM (inactive); GI50 [22]: 15.6 µM (inactive); GI50 [23]: 18 µM (inactive); GI50 [24]: 19.3 µM (inactive); GI50 [25]: 21.7 µM (inactive); GI50 [59]: 31.2 µM (inactive); GI50 [26]: 24.3 µM (inactive); GI50 [27]: 25.2 µM (inactive); GI50 [28]: 39.6 µM (inactive); GI50 [29]: 35.8 µM (inactive); GI50 [30]: 18.9 µM (inactive); GI50 [31]: 40.9 µM (inactive); GI50 [32]: 42.5 µM (inactive); GI50 [33]: 18.3 µM (inactive); GI50 [34]: 30.9 µM (inactive); GI50 [35]: 20 µM (inactive); GI50 [36]: 22.9 µM (inactive); GI50 [37]: 32.4 µM (inactive); GI50 [38]: 24.5 µM (inactive); GI50 [39]: > 100 µM (inactive); GI50 [40]: 19.3 µM (inactive); GI50 [41]: 25.8 µM (inactive); GI50 [42]: 31.3 µM (inactive); GI50 [43]: 29.9 µM (inactive); GI50 [44]: 19 µM (inactive); GI50 [45]: 20.7 µM (inactive); GI50 [46]: 21.3 µM (inactive); GI50 [47]: 14.9 µM (inactive); GI50 [48]: 19.4 µM (inactive); GI50 [49]: 16.1 µM (inactive); GI50 [50]: 22.9 µM (inactive); GI50 [51]: 19.4 µM (inactive); GI50 [52]: 49.4 µM (inactive); GI50 [53]: 26.7 µM (inactive); GI50 [54]: 18.4 µM (inactive); GI50 [55]: 24.3 µM (inactive); GI50 [56]: 33.2 µM (inactive); GI50 [57]: 27.3 µM (inactive)
